Test results reported in patent US5556744A, “Methods and compositions for diagnosing and treating certain HIV infected patients” (The Trustees of the University of Pennsylvania, priority 1994, dated 1996).

Key:
[1] = system: maternal HIV+ sera (antibodies); experiment: RIA / ELISA binding of maternal HIV+ sera to gp120 and gp41 peptides (Example 3); set-up: species or system human
In short: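 Peptides were coated at 10 μg/ml in carbonate buffer pH 9.6 and blocked with 1% BSA. Sera at 1:50 and 1:500 were incubated overnight at 4°C and detected with ¹²⁵I anti-human IgG (RIA) or HRP/TMB at OD450 (ELISA). Specific binding was taken as peptide minus no-peptide wells, scored as a ratio to normal human serum.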

[2] = system: maternal sera (antibodies); experiment: ELISA peptide-binding of maternal sera (Example 6); set-up: species or system human; conditions: for Number of Non-Transmitters which bound to peptide / Percent of Non-Transmitters which bound to peptide: N = 12; for Number of Transmitters which bound to peptide / Percent of Transmitters which bound to peptide: N = 4
In short: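 Third-trimester maternal sera, from HIV-1 transmitting and non-transmitting mothers, were tested by ELISA against ~16-residue peptides spanning HIV-1 external and transmembrane glycoproteins. Each serum was run with at least 40 peptides, and values are the percentage of sera binding each peptide.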

[3] = Serum No. 1, Non-Transmission Group
[4] = Serum No. 2, Non-Transmission Group
[5] = Serum No. 3, Non-Transmission Group
[6] = Serum No. 4, Transmission Group
[7] = Serum No. 5, Transmission Group
[8] = Serum No. 6, Non-Transmission Group
[9] = Serum No. 7, Non-Transmission Group
[10] = Serum No. 8, Non-Transmission Group
[11] = Serum No. 9, Non-Transmission Group
[12] = Serum No. 10, Transmission Group
[13] = Serum No. 11, Non-Transmission Group
[14] = Serum No. 12, Non-Transmission Group
[15] = Serum No. 13, Transmission Group
[16] = Serum No. 14, Transmission Group
[17] = Serum No. 15, Transmission Group
[18] = Serum No. 16, Non-Transmission Group
[19] = Serum No. 17, Non-Transmission Group
[20] = Serum No. 18, Non-Transmission Group
[21] = Serum No. 19, Transmission Group
[22] = Serum No. 20, Non-Transmission Group

Substance | Binding of maternal HIV+ serum to peptide (sera/NHS ratio) [1, 3] | Binding of maternal HIV+ serum to peptide (sera/NHS ratio) [1, 4] | Binding of maternal HIV+ serum to peptide (sera/NHS ratio) [1, 5] | Binding of maternal HIV+ serum to peptide (sera/NHS ratio) [1, 6] | Binding of maternal HIV+ serum to peptide (sera/NHS ratio) [1, 7] | Binding of maternal HIV+ serum to peptide (sera/NHS ratio) [1, 8] | Binding of maternal HIV+ serum to peptide (sera/NHS ratio) [1, 9] | Binding of maternal HIV+ serum to peptide (sera/NHS ratio) [1, 10] | Binding of maternal HIV+ serum to peptide (sera/NHS ratio) [1, 11] | Binding of maternal HIV+ serum to peptide (sera/NHS ratio) [1, 12] | Binding of maternal HIV+ serum to peptide (sera/NHS ratio) [1, 13] | Binding of maternal HIV+ serum to peptide (sera/NHS ratio) [1, 14] | Binding of maternal HIV+ serum to peptide (sera/NHS ratio) [1, 15] | Binding of maternal HIV+ serum to peptide (sera/NHS ratio) [1, 16] | Binding of maternal HIV+ serum to peptide (sera/NHS ratio) [1, 17] | Binding of maternal HIV+ serum to peptide (sera/NHS ratio) [1, 18] | Binding of maternal HIV+ serum to peptide (sera/NHS ratio) [1, 19] | Binding of maternal HIV+ serum to peptide (sera/NHS ratio) [1, 20] | Binding of maternal HIV+ serum to peptide (sera/NHS ratio) [1, 21] | Binding of maternal HIV+ serum to peptide (sera/NHS ratio) [1, 22] | also measured
CIVQQQNNLLRAI-EAQQHLLQLTVWGIKQL (CIVQQQNNLLRAIEAQQHLLQLTVWGIKQL) [Peptide 560] | + (which value is between 2 to 3) | - (specific OD450 or cpm of sera sample binding to peptide divided by the specific OD450 or cpm of NHS sample binding to peptide, which value is less than 2) | - (specific OD450 or cpm of sera sample binding to peptide divided by the specific OD450 or cpm of NHS sample binding to peptide, which value is less than 2) | - (specific OD450 or cpm of sera sample binding to peptide divided by the specific OD450 or cpm of NHS sample binding to peptide, which value is less than 2) | - (specific OD450 or cpm of sera sample binding to peptide divided by the specific OD450 or cpm of NHS sample binding to peptide, which value is less than 2) | - (specific OD450 or cpm of sera sample binding to peptide divided by the specific OD450 or cpm of NHS sample binding to peptide, which value is less than 2) | - (specific OD450 or cpm of sera sample binding to peptide divided by the specific OD450 or cpm of NHS sample binding to peptide, which value is less than 2) | - (specific OD450 or cpm of sera sample binding to peptide divided by the specific OD450 or cpm of NHS sample binding to peptide, which value is less than 2) | - (specific OD450 or cpm of sera sample binding to peptide divided by the specific OD450 or cpm of NHS sample binding to peptide, which value is less than 2) | - (specific OD450 or cpm of sera sample binding to peptide divided by the specific OD450 or cpm of NHS sample binding to peptide, which value is less than 2) | - (specific OD450 or cpm of sera sample binding to peptide divided by the specific OD450 or cpm of NHS sample binding to peptide, which value is less than 2) | - (specific OD450 or cpm of sera sample binding to peptide divided by the specific OD450 or cpm of NHS sample binding to peptide, which value is less than 2) | - (specific OD450 or cpm of sera sample binding to peptide divided by the specific OD450 or cpm of NHS sample binding to peptide, which value is less than 2) | - (specific OD450 or cpm of sera sample binding to peptide divided by the specific OD450 or cpm of NHS sample binding to peptide, which value is less than 2) | - (specific OD450 or cpm of sera sample binding to peptide divided by the specific OD450 or cpm of NHS sample binding to peptide, which value is less than 2) | - (specific OD450 or cpm of sera sample binding to peptide divided by the specific OD450 or cpm of NHS sample binding to peptide, which value is less than 2) | - (specific OD450 or cpm of sera sample binding to peptide divided by the specific OD450 or cpm of NHS sample binding to peptide, which value is less than 2) | - (specific OD450 or cpm of sera sample binding to peptide divided by the specific OD450 or cpm of NHS sample binding to peptide, which value is less than 2) | - (specific OD450 or cpm of sera sample binding to peptide divided by the specific OD450 or cpm of NHS sample binding to peptide, which value is less than 2) | - (specific OD450 or cpm of sera sample binding to peptide divided by the specific OD450 or cpm of NHS sample binding to peptide, which value is less than 2) | Number of Non-Transmitters which bound to peptide [2]: 0; Percent of Non-Transmitters which bound to peptide [2]: 0%; Number of Transmitters which bound to peptide [2]: 0; Percent of Transmitters which bound to peptide [2]: 0%
DREINNYTSLIHSLI [Peptide 40] | - (specific OD450 or cpm of sera sample binding to peptide divided by the specific OD450 or cpm of NHS sample binding to peptide, which value is less than 2) | - (specific OD450 or cpm of sera sample binding to peptide divided by the specific OD450 or cpm of NHS sample binding to peptide, which value is less than 2) | - (specific OD450 or cpm of sera sample binding to peptide divided by the specific OD450 or cpm of NHS sample binding to peptide, which value is less than 2) | - (specific OD450 or cpm of sera sample binding to peptide divided by the specific OD450 or cpm of NHS sample binding to peptide, which value is less than 2) | - (specific OD450 or cpm of sera sample binding to peptide divided by the specific OD450 or cpm of NHS sample binding to peptide, which value is less than 2) | - (specific OD450 or cpm of sera sample binding to peptide divided by the specific OD450 or cpm of NHS sample binding to peptide, which value is less than 2) | - (specific OD450 or cpm of sera sample binding to peptide divided by the specific OD450 or cpm of NHS sample binding to peptide, which value is less than 2) | - (specific OD450 or cpm of sera sample binding to peptide divided by the specific OD450 or cpm of NHS sample binding to peptide, which value is less than 2) | - (specific OD450 or cpm of sera sample binding to peptide divided by the specific OD450 or cpm of NHS sample binding to peptide, which value is less than 2) | - (specific OD450 or cpm of sera sample binding to peptide divided by the specific OD450 or cpm of NHS sample binding to peptide, which value is less than 2) | - (specific OD450 or cpm of sera sample binding to peptide divided by the specific OD450 or cpm of NHS sample binding to peptide, which value is less than 2) | - (specific OD450 or cpm of sera sample binding to peptide divided by the specific OD450 or cpm of NHS sample binding to peptide, which value is less than 2) | - (specific OD450 or cpm of sera sample binding to peptide divided by the specific OD450 or cpm of NHS sample binding to peptide, which value is less than 2) | - (specific OD450 or cpm of sera sample binding to peptide divided by the specific OD450 or cpm of NHS sample binding to peptide, which value is less than 2) | - (specific OD450 or cpm of sera sample binding to peptide divided by the specific OD450 or cpm of NHS sample binding to peptide, which value is less than 2) | - (specific OD450 or cpm of sera sample binding to peptide divided by the specific OD450 or cpm of NHS sample binding to peptide, which value is less than 2) | - (specific OD450 or cpm of sera sample binding to peptide divided by the specific OD450 or cpm of NHS sample binding to peptide, which value is less than 2) | - (specific OD450 or cpm of sera sample binding to peptide divided by the specific OD450 or cpm of NHS sample binding to peptide, which value is less than 2) | - (specific OD450 or cpm of sera sample binding to peptide divided by the specific OD450 or cpm of NHS sample binding to peptide, which value is less than 2) | - (specific OD450 or cpm of sera sample binding to peptide divided by the specific OD450 or cpm of NHS sample binding to peptide, which value is less than 2) | Number of Non-Transmitters which bound to peptide [2]: 1; Percent of Non-Transmitters which bound to peptide [2]: 8.3%; Number of Transmitters which bound to peptide [2]: 0; Percent of Transmitters which bound to peptide [2]: 0%
